The values below come from patent US10039284B2, “Pesticidal compositions” (priority 2006, dated 2018).

For data set [1], the system named is Green Rice Leafhopper (Nephotettix cincticeps). Description: Test on Controlling Effects Against Green Rice Leafhopper (rice seedling dip). The data set is classed as in vivo. An excerpt:
The root was wrapped with absorbent cotton wet with water, and the rice seedling was put in a test tube.

Data set [2] deals with Green Peach Aphid (Myzus persicae). Description: Test on Controlling Effects Against Green Peach Aphid (radish leaf dip). The format is in vivo. To be noted: third day after the dipping. The protocol: Japanese radish leaf (cut into about 2 cm×3 cm) was put in a test tube in which water was put, and Larvae of green peach aphid were released on the leaf. […] On the third day after the dipping, dead larvae were counted, and the mortality was calculated from the following equation. Aphids that dropped from leaf or were moribund were included in the number of dead. […] Mortality (%)=(number of dead insects/number of treated insects)×100

In data set [3] the test system is Common Cutworm (Spodoptera litura). Description: whole plant or invertebrate. On the procedure: They were diluted to a predetermined concentration with water containing a spreader (Shin-Rinoh 0.040) and subjected to the test by themselves or as a mixed liquid.
A leaf segment of cabbage was dipped for about 10 seconds in an insecticidal solution and dried in air. A wet filter paper was laid in a petri dish having a diameter of 9 cm, and the dried leaf segment of cabbage was placed thereon. 10 Second-instar larvae of common cutworm were released therein and after putting a cover, left in a constant temperature chamber at 25° C. with lightening. On the 5th or 6th day after release, dead larvae were counted, and the mortality was calculated by the following equation. Here, the insects that were moribund were counted as dead insects. Mortality (%)={(number of dead insects)/(number of surviving insects+number of dead insects)}×100
Further, the theoretical mortality (%) can be calculated from the colby's formula.

Setting [4] is: Spodoptera litura, in Brassica oleracea, foliar.

“And” between values parts separate entries of the source, which are not always exact repeats. Identical values can stand only once. Like-named read-outs stand apart in the source and are kept apart here.

`CC(NC(=O)c1cc(Cl)cc(Br)c1NC(=O)c1cc(Br)nn1-c1ncccc1Cl)C1CC1` (stereo not drawn) [Compound No. 1, N-[2-bromo-4-chloro-6-[[α-methyl-(cyclopropylmethyl)amino]carbonyl]-phenyl]-3-bromo-1-(3-chloro-2-pyridyl)-1H-pyrazole-5-carboxamide]: the “Mortality (%)” value in data set [1] (Compound No. 1 alone 0.4 ppm, 5th or 6th day) was 30% and 50%; in data set [2] (Compound No. 1 alone 0.8 ppm), 8% and 11%; in data set [2] (Compound No. 1 alone 1.5 ppm) it was 46% and 28%; in data set [3] (Compound No. 1 alone 0.02 ppm, 5th or 6th day), 100% and 90% and 70% and 60% and 50%.

For `C[C@@H](NC(=O)C(C#N)C(C)(C)C)c1ccc(Cl)cc1Cl` (stereo partly drawn) [Diclocymet, diclocymet], in data set [1] (Nephotettix cincticeps), the mortality at 0.4 ppm was 0% and the mortality at 0.8 ppm was determined as 0%. In data set [3] (setting [4]), this compound returned a mortality at 18.8 ppm of 0%, a mortality at 37.5 ppm of 0% and a mortality at 75 ppm of 0%.

Turning to `O=C1OCc2c(Cl)c(Cl)c(Cl)c(Cl)c21` [Fthalide, fthalide], the mortality at 50 ppm in data set [1] (Nephotettix cincticeps, other pesticide alone 50 ppm, 5th or 6th day) came out at 0%; in data set [3] (setting [4]), 0%. Moreover, the mortality at 100 ppm in data set [1] (Nephotettix cincticeps, other pesticide alone 100 ppm, 5th or 6th day) worked out at 0%; in data set [3] (setting [4]), 0%. The mortality at 200 ppm in data set [1] (Nephotettix cincticeps, other pesticide alone 200 ppm, 5th or 6th day, read-out: Mortality (%)) is 0%; in data set [3] (setting [4]), 0%.

In the case of `C=CCOC1=NS(=O)(=O)c2ccccc21` [Probenazole, probenazole], the mortality at 200 ppm in data set [1] (Nephotettix cincticeps) came out at 0%; in data set [2] (Myzus persicae, foliar, other pesticide alone 200 ppm), 13%. This compound came in with a mortality at 100 ppm in data set [2] (Myzus persicae, foliar, other pesticide alone 100 ppm) of 0%.
